In brackets after ≈: the same amount, converted by molar mass.
What was measured:
[1] = tested on: Staphylococcus aureus (ATCC 43300); experiment: Antibacterial MIC, broth microdilution (CLSI); assay type: cell-based; settings: for MIC80: Staphylococcus aureus, ATCC43300, read-out: MIC80 S. aureus; for S. aureus Selectivity Indices, Group / S. aureus Selectivity Index (SI): SI, IC50 (μM)/MIC80 (μM), HEK293 cytotoxicity; for S. aureus Selectivity Index (SI): numeric value
[2] = tested on: Enterococcus faecalis (ATCC 51299); experiment: Antibacterial MIC, broth microdilution (CLSI); assay type: cell-based; settings: for MIC80: Enterococcus faecalis, ATCC51299, read-out: MIC80 E. faecalis; for E. faecalis Selectivity Indices, Group / E. faecalis Selectivity Index (SI): SI, IC50 (μM)/MIC80 (μM), HEK293 cytotoxicity; for E. faecalis Selectivity Index (SI): numeric value
[3] = tested on: Escherichia coli (ATCC 25922); experiment: Antibacterial MIC, broth microdilution (CLSI); assay type: cell-based; settings: Escherichia coli, ATCC25922; read-out: MIC80 E. coli
[4] = tested on: Genomic double stranded DNA (salmon); experiment: Fluorescence intercalator displacement (FID) assay, SYBR-safe probe; settings: 20 μM compound, 30° C., lower % = stronger binding
Method in brief: (§1)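 Probe displacement was measured at 30 °C in 1 mM phosphate pH 7.4 containing SybrSafe (12500-fold dilution), 3.76 ng/mL nucleic acid (salmon dsDNA or polyAU dsRNA) and 20 μM compound. Fluorescence loss is normalised between probe-only and probe-plus-nucleic-acid controls.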

[5] = tested on: PolyAU double stranded RNA; experiment: as above; settings: 20 μM compound, 30° C., lower % = stronger binding
Method in brief: as §1

T. equiperdum = experiment: Resazurin-based (Alamar blue) drug sensitivity assay; settings: Trypanosoma equiperdum, read-out: IC50 T. equiperdum
T. evansi AntTat 3/3 = experiment: as above; settings: read-out: IC50 T. evansi
Method: A detailed description of the procedure for evaluating activity against trypanosomes, using an Alamar Blue (resazurin) assay, is described below.
The bloodstream form (BSF) T. b. brucei s427 (see De Koning, H. P. et al., Mol. Biochem. Parasitol. 2000, 106, 181-185), T. evansi AntTat 3/3 (see Dean, S. et al., Proc. Natl. Acad. Sci. USA, 2013, 110, 14741-14746), and T. equiperdum (see Stewart, M. L. et al., Eukaryot. Cell, 2010, 9, 336-343) were cultured in HMI-9 medium (Life Technologies, Paisley, United Kingdom) supplemented with 10% heat inactivated Foetal Bovine Serum (FBS (PAA Laboratories Linz, Austria)), 14 μL/L β-mercaptoethanol (BDH, Dorset, UK), and 3.0 g/L NaHCO3 (Sigma-Aldrich) and adjusted to pH 7.4. These cell lines were maintained at 37° C. in a humidified, 5% CO2 environment.
A resazurin-based (Alamar blue) drug sensitivity assay was used to assess and compare the activity of standard trypanocides in the different cell lines investigated (see Gould, M. K. et al., Anal. Biochem., 2008, 382, 87-93). Briefly, 23 doubling dilutions of the test compound of the invention, starting at 100 μM, and a compound-free control were prepared in 100 μL medium in a 96-well white plate (Greiner Bio-one, Frickenhausen, Germany). The cells were adjusted to 2×10^4 cells/mL for T. b. brucei and T. equiperdum; 4×10^4 cells/mL for T. evansi; and 5×10^5 cells/mL for T. congolense in the appropriate medium. 100 μL of the adjusted cells was then added to the wells containing drug dilutions and incubated for 48 h under respective culture condition. Thereafter, 20 μL of 125 mg/mL resazurin sodium dye was added, and the plate was incubated for a further 24 h.

C. neoformans (F10025) = settings: Cryptococcus neoformans, read-out: MIC99 C. neoformans
Method: The Minimum Inhibitory Concentration (MIC, at 99% inhibition) of the compounds was determined using the broth microdilution method as recommended by EUCAST (EUCAST Definitive Document E.DEF 9.3.2, Method for the determination of broth dilution minimum inhibitory concentrations of antifungal agents for conidia forming moulds and EUCAST Definitive Document E.DEF 7.3.2 Method for the determination of broth dilution minimum inhibitory concentrations of antifungal agents for yeasts).

[6] = tested on: A. fumigatus A1160 (MFIG001); settings: Aspergillus fumigatus, read-out: MIC99 A. fumigatus A1160
[7] = tested on: Rhizopus arrhizus (NEQAS12.35321); settings: read-out: MIC99 Rhizopus arrhizus
Candida auris (H.17.157) = settings: for MIC99: Candidozyma auris, read-out: MIC99 Candida auris; for C. auris Selectivity Indices, Group: Alkyl Amidines and NH Pyrroles
[8] = tested on: Candida glabrata (ACPF3309); settings: for MIC99: Nakaseomyces glabratus, read-out: MIC99 Candida glabrata; for C. glabrata Selectivity Indices, Group / C. glabrata Selectivity Index (SI): SI, IC50 (μM)/MIC99 (μg/mL), HEK293 cytotoxicity; for C. glabrata Selectivity Indices, Group: Alkyl Amidines and NH Pyrroles; for C. glabrata Selectivity Index (SI): numeric value
T. vaginalis = experiment: Trichomonas resorufin assay; assay type: cell-based
[9] = tested on: SARS-CoV-2 (hCoV-19/Australia/VIC01/2020); experiment: SARS-CoV-2 microplaque inhibition assay in Vero-E6 cells; assay type: cell-based; settings: SI, IC50 (μM)/IC50 (μM); HEK293 cytotoxicity; Alkyl Amidines and NH Pyrroles
[10] = SI, IC50 (μM)/MIC99 (μg/mL), HEK293 cytotoxicity

Cn1cc(NC(=O)c2ccc(/C=C/c3ccc4nonc4c3)cc2)cc1C(=O)Nc1c[nH]c(C(=O)NCCN2CCOCC2)c1 [IIIb1, (E)-4-(4-(2-(benzo[c][1,2,5]oxadiazol-5-yl)vinyl)benzamido)-1-methyl-N-(5-((2-morpholinoethyl)carbamoyl)-1H-pyrrol-3-yl)-1H-pyrrole-2-carboxamide]
MIC80 [1]: 5 to 25 µM (≈ 3.04 to 15.2 µg/mL)
MIC80 [2]: > 100 µM
MIC80 [3]: > 100 µM
% Normalised Fluorescence with gDNA [4]: 47%
% Normalised Fluorescence with polyAU RNA [5]: 30%
IC50 (T. equiperdum): 10 to 100 nM
IC50 (T. evansi AntTat 3/3): 10 to 100 nM

CNC(=O)c1cc(NC(=O)c2cc(NC(=O)c3ccc(/C=C/c4cnc5ccccc5c4)cc3)cn2C)cn1C [IVa2, (E)-N,1-dimethyl-4-(1-methyl-4-(4-(2-(quinolin-3-yl)vinyl)benzamido)-1H-pyrrole-2-carboxamido)-1H-pyrrole-2-carboxamide]
S. aureus Selectivity Indices, Group ([1]; Amides): C (Group C: SI > 3)
S. aureus Selectivity Index (SI) [1]: 4
MIC80 [1]: < 5 µM
MIC80 [2]: < 5 µM
E. faecalis Selectivity Indices, Group ([2]; Amides): D (Group D: SI > 5)
E. faecalis Selectivity Index (SI) [2]: 10
MIC80 [3]: > 100 µM
% Normalised Fluorescence with gDNA [4]: 29%
% Normalised Fluorescence with polyAU RNA [5]: 73%
IC50 (T. equiperdum): 100 to 1000 nM
IC50 (T. evansi AntTat 3/3): 100 to 1000 nM

Cn1cc(NC(=O)c2cc(NC(=O)c3ccc(/C=C/c4cnc5ccccc5c4)cc3)c[nH]2)cc1C(=O)NCCC(=N)N [IIIa4, (E)-N-(3-amino-3-iminopropyl)-1-methyl-4-(4-(4-(2-(quinolin-3-yl)vinyl)benzamido)-1H-pyrrole-2-carboxamido)-1H-pyrrole-2-carboxamide]
S. aureus Selectivity Indices, Group ([1]; Alkyl Amidines and NH Pyrroles): D (D: SI > 10)
S. aureus Selectivity Index (SI) [1]: 81
MIC80 [1]: < 5 µM
MIC80 [2]: < 5 µM
E. faecalis Selectivity Indices, Group ([2]; Alkyl Amidines and NH Pyrroles): D (D: SI > 10)
E. faecalis Selectivity Index (SI) [2]: 41
MIC80 [3]: 25 to 100 µM (≈ 14.4 to 57.5 µg/mL)
% Normalised Fluorescence with gDNA [4]: 14%
% Normalised Fluorescence with polyAU RNA [5]: 3%
MIC99 (C. neoformans (F10025)): < 5 µg/mL
MIC99 [6]: 5 to 25 µg/mL (≈ 8.7 to 43.5 µM)
MIC99 [7]: 5 to 25 µg/mL (≈ 8.7 to 43.5 µM)
MIC99 (Candida auris (H.17.157)): 25 to 50 µg/mL (≈ 43.5 to 87 µM)
C. auris Selectivity Indices, Group (Candida auris (H.17.157); [10]): C (Group C 1 < SI <= 3)
MIC99 [8]: < 5 µg/mL
C. glabrata Selectivity Indices, Group [8]: D (Group D: SI > 50)
C. glabrata Selectivity Index (SI) [8]: 652
IC50 (T. equiperdum): < 10 nM
IC50 (T. evansi AntTat 3/3): 10 to 100 nM

O=C(Nc1c[nH]c(C(=O)Nc2c[nH]c(C(=O)NCCN3CCOCC3)c2)c1)c1ccc(/C=C/c2ccc3nonc3c2)cc1 [IIIb6, (E)-4-(4-(2-(benzo[c][1,2,5]oxadiazol-5-yl)vinyl)benzamido)-N-(5-((2-morpholinoethyl)carbamoyl)-1H-pyrrol-3-yl)-1H-pyrrole-2-carboxamide]
MIC80 [1]: 25 to 100 µM (≈ 14.9 to 59.5 µg/mL)
MIC80 [2]: > 100 µM
MIC80 [3]: > 100 µM
% Normalised Fluorescence with gDNA [4]: 84%
% Normalised Fluorescence with polyAU RNA [5]: 53%
IC50 (T. equiperdum): 10 to 100 nM
IC50 (T. evansi AntTat 3/3): 100 to 1000 nM

Cn1cc(NC(=O)c2cc(NC(=O)c3ccc(/C=C/c4cnc5ccccc5c4)cc3)cn2C)cc1C(N)=O [IVa1, (E)-N-(5-carbamoyl-1-methyl-1H-pyrrol-3-yl)-1-methyl-4-(4-(2-(quinolin-3-yl)vinyl)benzamido)-1H-pyrrole-2-carboxamide]
S. aureus Selectivity Indices, Group ([1]; Amides): B (Group B: 1.4 < SI <= 3)
MIC80 [1]: < 5 µM
MIC80 [2]: < 5 µM
E. faecalis Selectivity Indices, Group ([2]; Amides): C (Group: C, 1.5 < SI <= 5)
E. faecalis Selectivity Index (SI) [2]: 3
MIC80 [3]: > 100 µM
% Normalised Fluorescence with gDNA [4]: 41%
% Normalised Fluorescence with polyAU RNA [5]: 65%
IC50 (T. equiperdum): 100 to 1000 nM
IC50 (T. evansi AntTat 3/3): 100 to 1000 nM

Cn1cc(NC(=O)c2cc(NC(=O)c3ccc(/C=C/c4ccc5nonc5c4)cc3)c[nH]2)cc1C(=O)NCCN1CCOCC1 [IIIb9, (E)-4-(4-(4-(2-(benzo[c][1,2,5]oxadiazol-5-yl)vinyl)benzamido)-1H-pyrrole-2-carboxamido)-1-methyl-N-(2-morpholinoethyl)-1H-pyrrole-2-carboxamide]
MIC80 [1]: 5 to 25 µM (≈ 3.04 to 15.2 µg/mL)
MIC80 [2]: 5 to 25 µM (≈ 3.04 to 15.2 µg/mL)
MIC80 [3]: > 100 µM
% Normalised Fluorescence with gDNA [4]: 55%
% Normalised Fluorescence with polyAU RNA [5]: 30%
IC50 (T. equiperdum): 10 to 100 nM
IC50 (T. evansi AntTat 3/3): 100 to 1000 nM

CCCCCCCCCC[N+](C)(C)CCNC(=O)c1cc(NC(=O)c2cc(NC(=O)c3ccc(/C=C/c4cnc5ccccc5c4)cc3)cn2C)cn1C [Ic9, (E)-N,N-dimethyl-N-(2-(1-methyl-4-(1-methyl-4-(4-(2-(quinolin-3-yl)vinyl)benzamido)-1H-pyrrole-2-carboxamido)-1H-pyrrole-2-carboxamido)ethyl)decan-1-aminium]
S. aureus Selectivity Indices, Group ([1]; Quaternary ammoniums): B (Group B: 2 < SI <= 5)
MIC80 [1]: < 5 µM
MIC80 [2]: 5 to 25 µM
E. faecalis Selectivity Indices, Group ([2]; Quaternary ammoniums): B (Group B: 0.7 < SI <= 2)
MIC80 [3]: > 100 µM
IC50 (T. vaginalis; Trichomonas vaginalis, read-out: IC50 T. vaginalis): 5000 to 50000 nM
MIC99 (C. neoformans (F10025)): 5 to 25 µg/mL
MIC99 [6]: > 50 µg/mL
MIC99 [7]: > 50 µg/mL
MIC99 (Candida auris (H.17.157)): > 50 µg/mL
MIC99 [8]: > 50 µg/mL
IC50 (T. equiperdum): 100 to 1000 nM
IC50 (T. evansi AntTat 3/3): 10 to 100 nM

Cn1cc(NC(=O)c2ccc(/C=C/c3cnc4ccccc4c3)cc2)cc1C(=O)Nc1c[nH]c(C(=O)NCCN2CCOCC2)c1 [IIIb4, (E)-1-methyl-N-(5-((2-morpholinoethyl)carbamoyl)-1H-pyrrol-3-yl)-4-(4-(2-(quinolin-3-yl)vinyl)benzamido)-1H-pyrrole-2-carboxamide]
MIC80 [1]: < 5 µM
MIC80 [2]: > 100 µM
MIC80 [3]: > 100 µM
% Normalised Fluorescence with gDNA [4]: 37%
% Normalised Fluorescence with polyAU RNA [5]: 86%
MIC99 (C. neoformans (F10025)): > 50 µg/mL
MIC99 [6]: > 50 µg/mL
MIC99 [8]: > 50 µg/mL
IC50 (T. equiperdum): 10 to 100 nM
IC50 (T. evansi AntTat 3/3): 10 to 100 nM

Cn1cc(NC(=O)c2ccc(/C=C/c3cnc4ccccc4c3)cc2)cc1C(=O)Nc1c[nH]c(C(=O)NCCC(=N)N)c1 [IIIa2, (E)-N-(5-((3-amino-3-iminopropyl)carbamoyl)-1H-pyrrol-3-yl)-1-methyl-4-(4-(2-(quinolin-3-yl)vinyl)benzamido)-1H-pyrrole-2-carboxamide]
S. aureus Selectivity Indices, Group ([1]; Alkyl Amidines and NH Pyrroles): D (D: SI > 10)
S. aureus Selectivity Index (SI) [1]: 11
MIC80 [1]: < 5 µM
MIC80 [2]: > 100 µM
MIC80 [3]: > 100 µM
% Normalised Fluorescence with gDNA [4]: 17%
% Normalised Fluorescence with polyAU RNA [5]: 21%
MIC99 (C. neoformans (F10025)): < 5 µg/mL
MIC99 [6]: 5 to 25 µg/mL (≈ 8.7 to 43.5 µM)
MIC99 [7]: 25 to 50 µg/mL (≈ 43.5 to 87 µM)
MIC99 (Candida auris (H.17.157)): 5 to 25 µg/mL (≈ 8.7 to 43.5 µM)
C. auris Selectivity Indices, Group (Candida auris (H.17.157); [10]): C (Group C 1 < SI <= 3)
C. auris Selectivity Index (SI) (Candida auris (H.17.157); SI, IC50 (μM)/MIC99 (μg/mL), HEK293 cytotoxicity, numeric value): 3
MIC99 [8]: < 5 µg/mL
C. glabrata Selectivity Indices, Group [8]: C (Group C 20 < SI <= 50)
C. glabrata Selectivity Index (SI) [8]: 47
IC50 (T. equiperdum): 10 to 100 nM
IC50 (T. evansi AntTat 3/3): 10 to 100 nM

Cn1cc(NC(=O)c2cc(NC(=O)c3ccc(/C=C/c4cnc5ccccc5c4)cc3)cn2C)cc1C(=O)NCCC1CCCCC1 [IVa3, (E)-N-(2-cyclohexylethyl)-1-methyl-4-(1-methyl-4-(4-(2-(quinolin-3-yl)vinyl)benzamido)-1H-pyrrole-2-carboxamido)-1H-pyrrole-2-carboxamide]
MIC80 [1]: 25 to 100 µM (≈ 15.7 to 62.9 µg/mL)
MIC80 [2]: > 100 µM
MIC80 [3]: > 100 µM
IC50 (T. equiperdum): 100 to 1000 nM
IC50 (T. evansi AntTat 3/3): 100 to 1000 nM

O=C(Nc1c[nH]c(C(=O)Nc2c[nH]c(C(=O)NCCN3CCOCC3)c2)c1)c1ccc(/C=C/c2cnc3ccccc3c2)cc1 [IIIb5, (E)-N-(2-morpholinoethyl)-4-(4-(4-(2-(quinolin-3-yl)vinyl)benzamido)-1H-pyrrole-2-carboxamido)-1H-pyrrole-2-carboxamide]
MIC80 [1]: < 5 µM
MIC80 [2]: > 100 µM
MIC80 [3]: > 100 µM
% Normalised Fluorescence with gDNA [4]: 49%
% Normalised Fluorescence with polyAU RNA [5]: 59%
MIC99 (C. neoformans (F10025)): > 50 µg/mL
MIC99 [6]: > 50 µg/mL
MIC99 [8]: > 50 µg/mL
IC50 (T. equiperdum): 10 to 100 nM
IC50 (T. evansi AntTat 3/3): 10 to 100 nM

COc1cccc(/C=C/c2ccc(C(=O)Nc3cc(C(=O)Nc4cc(C(=O)NCCN5CCOCC5)n(C)c4)n(C)c3)cc2)c1 [Ref-1, reference compound]
S. aureus Selectivity Indices, Group ([1]; Alkyl Amidines and NH Pyrroles): A (Group A: SI < 3)
E. faecalis Selectivity Indices, Group ([2]; Alkyl Amidines and NH Pyrroles): A (Group A: SI < 3)
T. vaginalis Selectivity Indices, Group (T. vaginalis; SI, IC50 (μM)/IC50 (μM), HEK293 cytotoxicity, Alkyl Amidines and NH Pyrroles): A (Group A: SI < 8)
SARS-CoV-2 Selectivity Indices, Group [9]: A (Group A: SI < 4.1)
C. auris Selectivity Indices, Group (Candida auris (H.17.157); [10]): A (Group A: SI < 0.4)
C. glabrata Selectivity Indices, Group [8]: A (Group A: SI < 12)
